Common to all, as to type: in vivo
Experiment [1] has as its system Puccinia triticina; Synonym: Puccinia recondite f. Sp. Tritici. The experiment can be described thus: Wheat Brown Rust (PUCCRT) disease control. Conditions: for pest or weed control at 100 ppm / pest or weed control at 121.5 g/ha: Puccinia triticina, topical; for pest or weed control at 100 ppm: rate 100 ppm. Summed up: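 Brown rust on first-leaf Yuma wheat: spore inoculation before or after spray application (acetone/Triton X-100 solution, or EC with Trycol in track spray), overnight 100% RH at 22 °C, disease developed at 24 °C. Severity scored 0–100% and converted to percent control against untreated.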

The next experiment concerns Alternaria solani. The experiment can be described thus: Tomato Early Blight (ALTESO) disease control. Particulars: Alternaria solani, topical, 24 h, 1 Day Protectant, read-out: Disease Control ALTESO 1 DP. Summed up: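 Acetone solutions diluted in nine volumes of water with 110 ppm Triton X-100, sprayed to run-off on 12–14-day-old tomato plants (Outdoor girl). Alternaria solani spores applied 24 h after treatment, then 100% RH dew chambers at 20° C. and a 22° C. growth room. Percent control from disease severity (0–100%) relative to untreated plants.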

For a further experiment, the system named is Erysiphe cichoracearum. The experiment can be described thus: Powdery Mildew of Cucumber (ERYSCI) disease control. Conditions: Golovinomyces cichoracearum, topical, 24 h, 1 Day Protectant, read-out: Disease Control ERYSCI 1 DP. How it is done: Technical grades of materials were dissolved in acetone, which were then mixed with nine volumes of water containing 110 ppm Triton X-100. The fungicide solutions were applied onto wheat seedlings using an automated booth sprayer to run-off. All sprayed plants were allowed to air dry prior to further handling. All fungicides were evaluated using the aforementioned method for their activity vs. all target diseases. Wheat leaf blotch and brown rust activity were also evaluated using track spray applications, in which case the fungicides were formulated as EC formulations, containing 0.1% Trycol 5941 in the spray solutions. Wheat plants (variety Yuma) were grown from seed in a greenhouse in 50% mineral soil/50% soil-less Metro mix until the first leaf was fully emerged, with 7-10 seedlings per pot. These plants were inoculated with an aqueous spore suspension of Septoria tritici either prior to or after fungicide treatments. After inoculation the plants were kept in 100% relative humidity (one day in a dark dew chamber followed by two to three days in a lighted dew chamber at 20° C.) to permit spores to germinate and infect the leaf. The plants were then transferred to a greenhouse set at 20° C. for disease to develop. When disease symptoms were fully expressed on the 1st leaves of untreated plants, infection levels were assessed on a scale of 0 to 100 percent disease severity. Percent disease control was calculated using the ratio of disease severity on treated plants relative to untreated plants. Cucumber seedlings (variety Bush Pickle) were grown in soil-less Metro mix, with one plant per pot, and used in the test when 12 to 14 days old. Plants were inoculated with a spore suspension 24 hr following fungicide treatments. After inoculation the plants remained in the greenhouse set at 20° C. until disease was fully expressed. Fungicide formulation, application and disease assessment on the sprayed leaves followed the procedures as described in the Example A.

For experiment [2], the system named is Mycosphaerella graminicola; Anamorph: Septoria tritici. The experiment can be described thus: Leaf Blotch of Wheat (SEPTTR) disease control. Conditions: Zymoseptoria tritici; for pest or weed control at 100 ppm: rate 100 ppm. Summed up: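 Percent disease control is derived from Septoria tritici leaf blotch severity (0 to 100 percent) on treated versus untreated wheat seedlings. Plants get fungicide spray to run-off, with inoculation either preceding or following application, then humid incubation at 20° C.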

[3] abbreviates: 24 h, 1 Day Protectant, read-out: PUCCRT 1 DP disease control.
Where [4] appears, read: 24 h, 1 Day Protectant, rate 121.5 g/H, read-out: PUCCRT 1 DP disease control.
[5] abbreviates: 72 h, 3 Day Curative, read-out: PUCCRT 3 DC disease control.
Where [6] appears, read: 72 h, 3 Day Curative, rate 121.5 g/H, read-out: PUCCRT 3 DC disease control.
Where [7] appears, read: 24 h, 1 Day Protectant, read-out: SEPTTR 1 DP disease control.
The mark [8] stands for this setting: 24 h, 1 Day Protectant, rate 121.5 g/H, read-out: SEPTTR 1 DP disease control.
Where [9] appears, read: 72 h, 3 Day Curative, read-out: SEPTTR 3 DC disease control.
The mark [10] stands for this setting: 72 h, 3 Day Curative, rate 121.5 g/H, read-out: SEPTTR 3 DC disease control.

Where two headings read alike, the source gives them in different places.

Consider `COc1ccnc(C(=O)N[C@H]2CCC[C@H](Cc3ccc(F)cc3)[C@@H](OCC3CC3)[C@H](C)OC2=O)c1OC(C)=O` [Compound F67], for which the pest or weed control at 100 ppm lay within 80 to 100% in experiment [1] (setting [3]); 80 to 100% in experiment [1] (setting [5]); 80 to 100% in the experiment with Alternaria solani; 0 to 80% in the experiment with Erysiphe cichoracearum; 80 to 100% in experiment [2] (setting [7]); 80 to 100% in experiment [2] (setting [9]). Besides, the pest or weed control at 121.5 g/ha in experiment [1] (setting [4]), in experiment [1] (setting [6]), in experiment [2] (setting [8]) and in experiment [2] (setting [10]) was 80 to 100% each time.
With `COc1ccnc(C(=O)N[C@H]2CCC[C@H](CC3CCCCC3)[C@@H](OCC(C)C)[C@H](C)OC2=O)c1OCOC(C)=O` [Compound F113], the pest or weed control at 100 ppm (in experiment [1] (setting [3]); in experiment [1] (setting [5]); with Alternaria solani; with Erysiphe cichoracearum; in experiment [2] (setting [7]); in experiment [2] (setting [9])) was 80 to 100% each time. The pest or weed control at 121.5 g/ha in experiment [1] (setting [4]), in experiment [1] (setting [6]), in experiment [2] (setting [8]) and in experiment [2] (setting [10]) was 80 to 100% each time.
Consider `CCCO[C@@H]1[C@@H](Cc2ccccc2)CCC[C@H](NC(=O)c2nccc(OC)c2OC(C)=O)C(=O)O[C@H]1C` [Compound F88], for which the pest or weed control at 121.5 g/ha in experiment [1] (setting [4]), in experiment [1] (setting [6]), in experiment [2] (setting [8]) and in experiment [2] (setting [10]) was 80 to 100% each time. Moreover, the pest or weed control at 100 ppm with Alternaria solani and in the experiment on Erysiphe cichoracearum was 80 to 100% each time.
Turning to `CCOCC(=O)OCOc1c(OC)ccnc1C(=O)N[C@H]1CCC[C@H](CCF)[C@@H](OCC(C)C)[C@H](C)OC1=O` [Compound F181], the pest or weed control at 100 ppm in experiment [1] (setting [3]) lay in the range of 80 to 100%; in experiment [1] (setting [5]), 80 to 100%; in the experiment on Alternaria solani it was 80 to 100%; with Erysiphe cichoracearum, 0 to 80%; in experiment [2] (setting [7]) it was 80 to 100%; in experiment [2] (setting [9]), 80 to 100%. Moreover, the pest or weed control at 121.5 g/ha in experiment [1] (setting [4]), in experiment [1] (setting [6]), in experiment [2] (setting [8]) and in experiment [2] (setting [10]) was 80 to 100% in each case.
As to `COc1ccnc(C(=O)N[C@H]2CCC[C@H](Cc3ccccc3)[C@@H](OCC3CC3)[C@H](C)OC2=O)c1OCOC(C)=O` [Compound F107], the pest or weed control at 100 ppm (in experiment [1] (setting [3]); in experiment [1] (setting [5]); in the experiment with Alternaria solani; in the experiment on Erysiphe cichoracearum; in experiment [2] (setting [7]); in experiment [2] (setting [9])) was 80 to 100% in each case. Also, the pest or weed control at 121.5 g/ha in experiment [1] (setting [4]), in experiment [1] (setting [6]), in experiment [2] (setting [8]) and in experiment [2] (setting [10]) was 80 to 100% each time.
Turning to `CCOCC(=O)OCOc1c(OC)ccnc1C(=O)N[C@H]1CCC[C@H](Cc2ccc(F)cc2)[C@@H](OCC2CC2)[C@H](C)OC1=O` [Compound F164], the pest or weed control at 100 ppm (in experiment [1] (setting [3]); in experiment [1] (setting [5]); in the experiment on Alternaria solani; with Erysiphe cichoracearum; in experiment [2] (setting [7]); in experiment [2] (setting [9])) was 80 to 100% in each case. In addition, the pest or weed control at 121.5 g/ha in experiment [1] (setting [4]) lay in the range of 80 to 100%; in experiment [1] (setting [6]) it was 0 to 80%; in experiment [2] (setting [8]), 80 to 100%; in experiment [2] (setting [10]) it was 80 to 100%.
Take `CCCO[C@@H]1[C@@H](Cc2ccccc2)CCC[C@H](NC(=O)c2nccc(OC)c2OC(=O)CCOC)C(=O)O[C@H]1C` [Compound F198]: the pest or weed control at 121.5 g/ha lay within 80 to 100% in experiment [1] (24 h, Wheat Brown Rust, 1 Day Protectant, rate 121.5 g/H (low volume application), read-out: Disease control PUCCRT 1 DP); 80 to 100% in experiment [1] (72 h, Wheat Brown Rust, 3 Day Curative, rate 121.5 g/H (low volume application), read-out: Disease control PUCCRT 3 DC); 80 to 100% in experiment [2] (24 h, Wheat Leaf Blotch, 1 Day Protectant, rate 121.5 g/H (low volume application), read-out: Disease control SEPTTR 1 DP); 80 to 100% in experiment [2] (72 h, Wheat Leaf Blotch, 3 Day Curative, rate 121.5 g/H (low volume application), read-out: Disease control SEPTTR 3 DC). For the same molecule, the pest or weed control at 100 ppm in the experiment with Alternaria solani and in the experiment on Erysiphe cichoracearum was 80 to 100% throughout.
Take `CC[C@H]1CCC[C@H](NC(=O)c2nccc(OC)c2OC(C)=O)C(=O)O[C@@H](C)[C@@H]1Oc1ccccc1` [Compound F81]: the pest or weed control at 100 ppm in experiment [1] (setting [3]) was in the range of 80 to 100%; in experiment [1] (setting [5]) it was 80 to 100%; with Alternaria solani, 0 to 80%; in the experiment with Erysiphe cichoracearum, 0 to 80%; in experiment [2] (setting [7]), 80 to 100%; in experiment [2] (setting [9]) it was 80 to 100%. Besides, the pest or weed control at 121.5 g/ha in experiment [1] (setting [4]), in experiment [1] (setting [6]), in experiment [2] (setting [8]) and in experiment [2] (setting [10]) was 80 to 100% throughout.
Consider `COc1ccnc(C(=O)N[C@H]2CCC[C@H](CCF)[C@@H](OCC(C)C)[C@H](C)OC2=O)c1OCOC(C)=O` [Compound F128, ((2-(((3S,7R,8R,9S)-7-(2-fluoroethyl)-8-isobutoxy-9-methyl-2-oxooxonan-3-yl)carbamoyl)-4-methoxypyridin-3-yl)oxy)methyl acetate], for which the pest or weed control at 100 ppm in experiment [1] (setting [3]) was in the range of 80 to 100%; in experiment [1] (setting [5]), 80 to 100%; with Alternaria solani, 80 to 100%; in the experiment on Erysiphe cichoracearum it was 0 to 80%; in experiment [2] (setting [7]), 80 to 100%; in experiment [2] (setting [9]), 80 to 100%. Besides, the pest or weed control at 121.5 g/ha in experiment [1] (setting [4]), in experiment [1] (setting [6]), in experiment [2] (setting [8]) and in experiment [2] (setting [10]) was 80 to 100% in each case.
Regarding `COc1ccnc(C(=O)N[C@H]2CCC[C@H](Cc3ccc(F)cc3)[C@@H](OCC3CC3)[C@H](C)OC2=O)c1OCOC(C)=O` [Compound F96], the “PUCCRT 3 DC disease control” value in experiment [1] (3 Day Curative, rate 121.5 g/H) was “B (More than 0-Less than 80)”. Moreover, the pest or weed control at 100 ppm (in experiment [1] (setting [3]); in experiment [1] (setting [5]); in the experiment on Alternaria solani; in the experiment with Erysiphe cichoracearum; in experiment [2] (setting [7]); in experiment [2] (setting [9])) was 80 to 100% in each case. Further, the pest or weed control at 121.5 g/ha in experiment [1] (setting [4]), in experiment [2] (setting [8]) and in experiment [2] (setting [10]) was 80 to 100% throughout.
With `COc1ccnc(C(=O)N[C@H]2CCC[C@H](Cc3ccc(F)cc3F)[C@@H](OC(=O)c3ccco3)[C@H](C)OC2=O)c1OCOC(C)=O` [Compound F144], the pest or weed control at 121.5 g/ha in experiment [1] (setting [4]) was 80 to 100%; in experiment [2] (setting [8]), 80 to 100%; in experiment [2] (setting [10]) it was 0 to 80%. Moreover, the pest or weed control at 100 ppm in the experiment with Alternaria solani was 80 to 100%; in the experiment on Erysiphe cichoracearum, 0 to 80%.

These data come from US9265253B2, “Use of macrocyclic picolinamides as fungicides” (DOW AGROSCIENCES LLC, priority 2013, dated 2016).
